Earlier results as cited in US12376586B2, “Microcapsules comprising cinmethyln in the core and a polyurea derived from diphenylmethane diisocyanate or an oligomer thereof” (BASF Agro B.V., priority 2017, dated 2025).

Key:
[1] = at 20° C.
[2] = at 20° C.; remark: listed apart in the source

**Q.** With `Cc1ccccc1CO[C@@H]1C[C@]2(C(C)C)CC[C@@]1(C)O2` (racemic) [Cinmethylin, (±)-2-exo-(2-methylbenzyloxy)-1-methyl-4-isopropyl-7-oxabicyclo[2.2.1]heptane] as the molecule, how does the vapor pressure [1] read?
**A.** 8.1·10^−3 Pa

**Q.** What about the solubility in water [2] of the same molecule?
**A.** 0,063 g·L^−1
